This is an account of results in article PMC5559490, “Synthesis of Saccharumoside-B analogue with potential of antiproliferative and pro-apoptotic activities” (Scientific Reports, 2017).

Where two headings read alike, the source gives them in different places.

In data set [1] the test system is CaCo-2 colon cancer cells. Kind of data set: MTT antiproliferative assay, CaCo-2. The data set is classed as cell-based. The note with it: Homo sapiens.
The test system of data set [2] is DU145 prostate cancer cells. In words: MTT antiproliferative assay, DU145. The class given is cell-based. The note with it: Homo sapiens.
In data set [3] the test system is MCF-7 breast cancer cells. In words: MTT antiproliferative assay, MCF-7. The class given is cell-based. The note with it: Homo sapiens.
The subject of data set [4] is HeLa cervical cancer cells. Kind of data set: MTT antiproliferative assay, HeLa. The data set is classed as cell-based. The settings on record: Homo sapiens, read-out: IC50 HeLa Cervical. (In general: Formazan colour is commonly taken as a measure of viable cells.)
The test system of data set [5] is MIA PaCa-2 pancreatic cancer cells. Kind of data set: MTT antiproliferative assay, MIA PaCa-2. The class given is cell-based. The note with it: Homo sapiens.
In data set [6] the test system is human peripheral blood mononuclear cells (PBMC). Kind of data set: MTT assay on normal PBMC. The class given is cell-based. The settings on record: 48 h, read-out: IC50 PBMC (normal cells).
Data set [7] deals with MCF-10A mammary epithelial cells. Kind of data set: MTT assay on normal MCF-10A cells. The data set is classed as cell-based. The note with it: Homo sapiens, 48 h, read-out: IC50 MCF-10A Breast (normal cell line).
In data set [8] the test system is MCF-7 cells. Kind of data set: Rhodamine-123 mitochondrial membrane potential assay, MCF-7. The data set is classed as cell-based, human. The note with it: 24 h. How it is done:
[Worded in the source for another cell line; this cell line is reported under the same test.] Mitochondrial membrane potential changes (ΔΨm) were determined by flow cytometry using rhodamine-123 (green-fluorescent dye)[32]. MIA PaCa-2 pancreatic cancer cells (1 × 10^6 cells/well) were exposed to the isolated compound (5 µM) for 24 h. Further, rhodamine-123 (200 nM) was added to the cells, which were kept in dark for 35 min. The cells were further centrifuged and the pellet was washed with phosphate buffered saline (1 ml). The intensity of fluorescence in the cells represented the mitochondrial membrane potential change (ΔΨm), which was measured using a flow cytometer.

The subject of data set [9] is HL-60 leukemia cells. In words: MTT antiproliferative assay, HL-60. The class given is cell-based, human. The settings on record: Homo sapiens.
Setting [10] is: Caco-2, MTT assay, cancer cell line, mean of three independent experiments ± S.E.M., read-out: IC50 CaCo-2 Colon.
Setting [11] is: DU-145, MTT assay, cancer cell line, mean of three independent experiments ± S.E.M., read-out: IC50 DU145 Prostate.
The mark [12] stands for this setting: MCF7, MTT assay, cancer cell line, mean of three independent experiments ± S.E.M., read-out: IC50 MCF-7 Breast.
[13] abbreviates: MTT assay, cancer cell line, mean of three independent experiments ± S.E.M.
The mark [14] stands for this setting: MIA PaCa-2, MTT assay, cancer cell line, mean of three independent experiments ± S.E.M., read-out: IC50 MIA PaCa-2 Pancreatic.
The mark [15] stands for this setting: HL-60, MTT assay, cancer cell line, mean of three independent experiments ± S.E.M., read-out: IC50 HL-60 Leukemia.

`CC[C@@]1(O)C(=O)OCc2c1cc1n(c2=O)Cc2cc3ccccc3nc2-1` [Camptothecin, camptothecin, reference compound]: the IC50 (in general, the concentration needed to halve the response being measured) in data set [1] (setting [10]) was 3.68 ± 0.21 µM; in [2] (setting [11]), 6.75 ± 0.45 µM; in [3] (setting [12]), 5.16 ± 0.32 µM; in data set [4] (setting [13]) it was 4.28 ± 0.32 µM; in [5] (setting [14]) it was 4.24 ± 0.41 µM; in [6] (MTT assay, normal cells) it was greater than 100 µM. The IC50 in data set [7] (MTT assay, normal cells) is greater than 100 µM; in [9] (setting [15]), 4.95 ± 0.5 µM. Moreover, the results for the “mitochondria membrane potential loss” value in data set [8] (5 µM) and in data set [8] (10 µM) were 53.33 ± 3.06% and 62 ± 2.31%, respectively.
As for `COc1cc(CO)ccc1OC1OC(COC(=O)c2cc([N+](=O)[O-])cc([N+](=O)[O-])c2)C(O)C(O)C1O` (stereo not shown) [Compound 9i, (6-(4-(hydroxymethyl)-2-methoxyphenoxy)-tetrahydro-3,4,5-trihydroxy-2H-pyran-2-yl)methyl 3,5-dinitrobenzoate], the melting point (as a rule, the temperature of the solid-liquid transition) is 186 to 188 °C. Besides, in data set [1] (Caco-2, read-out: IC50 CaCo-2 Colon), the IC50 is 47 ± 2.58 µM. Moreover, the half-inhibitory concentration (IC50) in data set [2] (DU-145, read-out: IC50 DU145 Prostate) is 43.6 ± 1.87 µM. Also, the IC50 in data set [3] (MCF7, read-out: IC50 MCF-7 Breast) was 34.8 ± 0.51 µM. The IC50 in data set [4] is 38.4 ± 1.53 µM. For the same compound, the concentration for half-maximal inhibition (IC50) in [5] (MIA PaCa-2, read-out: IC50 MIA PaCa-2 Pancreatic) amounted to 34.8 ± 1.93 µM. Besides, the half-inhibitory concentration (IC50) in [6] was greater than 100 µM. For the same compound, the IC50 in data set [7] was greater than 100 µM. In [9] (HL-60, read-out: IC50 HL-60 Leukemia), the IC50 came to 29.6 ± 0.83 µM.
Compound `COc1cc(CO)cc(OC)c1OC1OC(COC(=O)c2ccccc2)C(O)C(O)C1O` (stereo not shown) [Compound 9j, (6-(4-(hydroxymethyl)-2,6-dimethoxyphenoxy)-tetrahydro-3,4,5-trihydroxy-2H-pyran-2-yl)methyl benzoate] had a melting point of 180 to 182 °C. Further, the 50% inhibitory concentration (IC50) in [1] (setting [10]) is 33.6 ± 1.51 µM. Also, in data set [2] (setting [11]), the half-maximal inhibitory concentration (IC50) was 36.8 ± 0.59 µM. Moreover, the IC50 in [3] (setting [12]) amounted to 29.4 ± 0.79 µM. In [4] (setting [13]), the concentration for half-maximal inhibition (IC50) was 30.4 ± 2.81 µM. Also, the IC50 in [5] (setting [14]) stood at 45.76 ± 0.42 µM. For the same compound, in data set [6] (MTT assay, normal cells), the IC50 was greater than 100 µM. In addition, the 50% inhibitory concentration (IC50) in data set [7] (MTT assay, normal cells) was greater than 100 µM. In addition, in [9] (setting [15]), the half-maximal inhibitory concentration (IC50) came to 25.6 ± 0.94 µM.
`COc1cc(CO)cc(OC)c1OC1OC(COC(=O)c2ccc(C)cc2)C(O)C(O)C1O` (stereo not shown) [Compound 9k, (6-(4-(hydroxymethyl)-2,6-dimethoxyphenoxy)-tetrahydro-3,4,5-trihydroxy-2H-pyran-2-yl)methyl 4-methylbenzoate] displayed a melting point of 201 to 203 °C. In [1] (setting [10]), the IC50 amounted to 28.3 ± 1.47 µM. The IC50 in data set [2] (setting [11]) came out at 42.8 ± 0.59 µM. Moreover, the IC50 in [3] (setting [12]) was 22 ± 0.72 µM. Further, the IC50 in data set [4] (setting [13]) was found to be 26.6 ± 1.37 µM. Also, in data set [5] (setting [14]), the half-inhibitory concentration (IC50) was found to be 23.9 ± 0.74 µM. In addition, in [6] (MTT assay, normal cells), the IC50 was greater than 100 µM. Besides, the half-inhibitory concentration (IC50) in [7] (MTT assay, normal cells) is greater than 100 µM. Moreover, in [9] (setting [15]), the concentration for half-maximal inhibition (IC50) is 18.5 ± 0.78 µM.
Turning to `COc1cc(OC)cc(C(=O)OCC2OC(Oc3c(OC)cc(CO)cc3OC)C(O)C(O)C2O)c1` (stereo not shown) [Compound 9l, (6-(4-(hydroxymethyl)-2,6-dimethoxyphenoxy)-tetrahydro-3,4,5-trihydroxy-2H-pyran-2-yl)methyl 3,5-dimethoxybenzoate], the melting point was 131 to 133 °C. Moreover, the IC50 in data set [1] (setting [10]) is 41.1 ± 1.48 µM. Also, the IC50 in [2] (setting [11]) came out at 49.6 ± 3.59 µM. For the same compound, in data set [3] (setting [12]), the IC50 worked out at 33.8 ± 0.73 µM. Moreover, the half-maximal inhibitory concentration (IC50) in data set [4] (setting [13]) amounted to 36.3 ± 1.76 µM. The IC50 in [5] (setting [14]) is 43.8 ± 1.75 µM. Moreover, in data set [6] (MTT assay, normal cells), the IC50 was greater than 100 µM. For the same compound, the concentration for half-maximal inhibition (IC50) in [7] (MTT assay, normal cells) was greater than 100 µM. Besides, in data set [9] (setting [15]), the IC50 was found to be 31.8 ± 1.58 µM.
`COc1cc(CO)cc(OC)c1OC1OC(COC(=O)c2ccc(F)cc2)C(O)C(O)C1O` (stereo not shown) [Compound 9m, (6-(4-(hydroxymethyl)-2,6-dimethoxyphenoxy)-tetrahydro-3,4,5-tri hydroxy-2H-pyran-2-yl)methyl 4-fluorobenzoate] had a melting point of 170 to 172 °C. The IC50 in data set [1] (setting [10]) worked out at 35.6 ± 1.46 µM. For the same compound, the IC50 in data set [2] (setting [11]) worked out at 33.8 ± 1.27 µM. For the same compound, in [3] (setting [12]), the half-inhibitory concentration (IC50) turned out to be 28.4 ± 0.69 µM. The IC50 in data set [4] (setting [13]) was found to be 34.1 ± 1.83 µM. The 50% inhibitory concentration (IC50) in [5] (setting [14]) is 47.3 ± 2.54 µM. In addition, the half-maximal inhibitory concentration (IC50) in data set [6] (MTT assay, normal cells) was greater than 100 µM. The half-maximal inhibitory concentration (IC50) in data set [7] (MTT assay, normal cells) was greater than 100 µM. Moreover, the 50% inhibitory concentration (IC50) in [9] (setting [15]) amounted to 21.8 ± 1.53 µM.
For `COc1cc(CO)cc(OC)c1OC1OC(COC(=O)c2ccccc2I)C(O)C(O)C1O` (stereo not shown) [Compound 9n, (6-(4-(hydroxymethyl)-2,6-dimethoxyphenoxy)-tetrahydro-3,4,5-tri hydroxy-2H-pyran-2-yl)methyl 2-iodobenzoate], the melting point is 124 to 126 °C. Also, the half-inhibitory concentration (IC50) in data set [1] (setting [10]) came to 45.2 ± 1.79 µM. Moreover, in [2] (setting [11]), the 50% inhibitory concentration (IC50) was 37.9 ± 2.48 µM. Also, the 50% inhibitory concentration (IC50) in data set [3] (setting [12]) amounted to 35 ± 1.52 µM. In addition, the half-maximal inhibitory concentration (IC50) in data set [4] (setting [13]) came to 32.1 ± 1.35 µM. Further, in [5] (setting [14]), the half-maximal inhibitory concentration (IC50) came out at 26.8 ± 1.25 µM. The IC50 in [6] (MTT assay, normal cells) was greater than 100 µM. In addition, the IC50 in [7] (MTT assay, normal cells) is greater than 100 µM. In addition, the IC50 in data set [9] (setting [15]) was 28.3 ± 1.72 µM.
In turn, `COc1cc(C(=O)OC[C@H]2O[C@@H](Oc3ccc(CO)cc3OC)[C@H](O)[C@@H](O)[C@@H]2O)ccc1O` [Compound 10, (6-(4-(hydroxymethyl)-2-methoxyphenoxy)-tetrahydro-3,4,5-trihydroxy-2H-pyran-2-yl) methyl 4-hydroxy-3-methoxy benzoate] had a melting point of 200 to 202 °C. For the same compound, the half-inhibitory concentration (IC50) in [1] (setting [10]) came out at 44.7 ± 2.52 µM. The IC50 in data set [2] (setting [11]) is 33.5 ± 1.43 µM. In addition, in [3] (setting [12]), the IC50 stood at 24.9 ± 1.67 µM. Also, the 50% inhibitory concentration (IC50) in data set [4] (setting [13]) was 39.9 ± 2.6 µM. Besides, the concentration for half-maximal inhibition (IC50) in data set [5] (setting [14]) was 28.3 ± 0.76 µM. Moreover, the 50% inhibitory concentration (IC50) in data set [6] (MTT assay, normal cells) is greater than 100 µM. In addition, the IC50 in data set [7] (MTT assay, normal cells) is greater than 100 µM. Also, the half-inhibitory concentration (IC50) in [9] (setting [15]) was determined as 31.8 ± 1.82 µM.
